Measurements reported in patent US20260022116A1, “IMIDAZOPYRIDINE COMPOUNDS, PREPARATION THEREOF AND THERAPEUTIC USES THEREOF” (SANOFI, priority 2022, published 2026).
Where a name gives a salt, the structure may show the parent alone.

What was measured:
ERK5 [1] = molecular target: T1, ERK5 (Homo sapiens, UniProt Q13164); assay: cell-based
Target sequence in this assay (Q13164 whole entry): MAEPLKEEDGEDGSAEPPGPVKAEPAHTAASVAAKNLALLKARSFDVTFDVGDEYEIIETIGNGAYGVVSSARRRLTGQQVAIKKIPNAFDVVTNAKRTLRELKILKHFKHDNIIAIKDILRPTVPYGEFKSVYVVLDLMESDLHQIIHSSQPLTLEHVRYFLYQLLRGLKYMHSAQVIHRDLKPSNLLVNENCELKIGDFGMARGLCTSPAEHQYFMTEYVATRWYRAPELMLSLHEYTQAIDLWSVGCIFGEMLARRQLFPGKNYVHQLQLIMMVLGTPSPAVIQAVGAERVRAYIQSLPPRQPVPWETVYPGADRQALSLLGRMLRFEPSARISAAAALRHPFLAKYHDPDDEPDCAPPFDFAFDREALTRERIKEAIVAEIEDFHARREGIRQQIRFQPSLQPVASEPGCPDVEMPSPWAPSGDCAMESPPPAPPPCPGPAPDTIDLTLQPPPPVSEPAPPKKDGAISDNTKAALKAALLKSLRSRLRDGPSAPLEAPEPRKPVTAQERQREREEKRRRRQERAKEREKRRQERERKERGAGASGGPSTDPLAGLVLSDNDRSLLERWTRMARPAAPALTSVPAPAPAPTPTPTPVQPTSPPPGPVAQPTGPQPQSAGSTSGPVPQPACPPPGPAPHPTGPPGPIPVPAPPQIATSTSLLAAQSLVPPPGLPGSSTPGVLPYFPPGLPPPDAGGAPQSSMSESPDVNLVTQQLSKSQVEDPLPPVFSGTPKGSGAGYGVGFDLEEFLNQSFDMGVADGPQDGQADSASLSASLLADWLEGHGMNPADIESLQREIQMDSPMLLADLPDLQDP
Description: (§1) Two assays were performed to assess the ERK5 inhibitory activity of compounds of the Examples, a cell-based assay and a cell-free biochemical assay.
The renal cancer cell line SN12C was transduced by a lentivirus pGreenFire1 MEF2 EF1 Neo (ref TR030VA-N) from SBI using standard infection protocol. pGreenFire1 MEF2 EF1 Neo allows the expression of luciferase gene under the control of minimal promoter with MEF2 transcriptional response elements. Cells harboring the reporter construct were selected by geneticin treatment. The selected cells were then transposed by a piggyback based plasmid pCM4007 allowing the expression of constitutively activated MEK5DD under control of TREG3 promoter, a doxycycline regulated promoter. Transposed cells were selected by puromycin treatment. Upon doxycycline treatment (1 μg/ml) MEK5DD was expressed. MEK5DD activates ERK5 that phosphorylates MEF2C protein. Activated MEF2C protein can bind to its transcriptional response elements. Then the luciferase is expressed. In a 96-well plate (96F nuncleon ref137101 thermofisher), 50,000 cells were inoculated in 142.5 μl of RPMI medium containing 10% fetal calf serum, 1% glutamine, and 1 μg/ml doxycycline. […] The luciferase activity was measured using the Kit Bright Glo Luminescent Cell Assay Cat E2610 (Promega) according to the manufacturer's protocol. Luminescence was determined using 0.2 second reading/well using a Tecan SPARK. IC50 values were calculated using XLFIT5 for Microsoft Excel using method 205.

ERK5 [2] = molecular target: T1, ERK5; assay: biochemical
Target sequence in this assay (Q13164 55-347 limits assumed): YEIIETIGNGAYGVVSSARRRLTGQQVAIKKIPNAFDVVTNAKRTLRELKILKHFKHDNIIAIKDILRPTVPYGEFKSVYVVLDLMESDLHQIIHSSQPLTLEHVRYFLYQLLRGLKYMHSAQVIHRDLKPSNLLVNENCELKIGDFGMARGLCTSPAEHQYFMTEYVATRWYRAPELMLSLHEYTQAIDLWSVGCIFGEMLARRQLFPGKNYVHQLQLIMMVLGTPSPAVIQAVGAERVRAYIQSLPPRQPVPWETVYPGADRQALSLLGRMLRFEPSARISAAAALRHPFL
Description: as §1
An assay was performed to measure the capacity of each compound to inhibit ERK5 enzymatic activity. Compound potency was evaluated by Time-Resolved Forster Resonance Energy Transfer (FRET system). […] A mixture of 1 mM ATP and 1 μM biotinylated synthetic peptide was added (Biosyntan GmbH). This synthetic peptide represents amino acids 30-52 of Eukaryotic translation initiation factor 4E-binding protein 1 (see, e.g., the sequence under accession No. NP_004086.1) biotinylated at the N-terminus.

IC50 (ERK5 [1]) | IC50 (ERK5 [2]) | Structure (SMILES)
6640 nM | 6910 nM | Nc1c(C(=O)N2CCC(c3ccnc4[nH]c(C5CCOCC5)nc34)CC2)cnn1-c1ccccc1 [Example 105, (5-amino-1-phenyl-pyrazol-4-yl)-[4-(2-tetrahydropyran-4-yl-3H-imidazo[4,5-b]pyridin-7-yl)-1-piperidyl]methanone]
 | 244 nM | O=C(c1ccc(OC(F)(F)F)cc1)N1CCC(c2c(F)cnc3[nH]c(C4CCC5(COC5)N(C(=O)O)C4)nc23)CC1 (racemic) [Example 461, (rac)-7-[6-fluoro-7-[1-[4-(trifluoromethoxy)benzoyl]-4-piperidyl]-3H-imidazo[4,5-b]pyridin-2-yl]-2-oxa-5-azaspiro[3.5]nonane-5-carboxylic acid]
> 10000 nM | 14900 nM | O=C(c1cnn(Cc2ccccc2Cl)c1)N1CCC(c2ccnc3[nH]c(C4CCOCC4)nc23)CC1 [Example 112, [1-[(2-chlorophenyl)methyl]pyrazol-4-yl]-[4-(2-tetrahydropyran-4-yl-3H-imidazo[4,5-b]pyridin-7-yl)-1-piperidyl]methanone]
> 10000 nM | 26800 nM | CS(=O)(=O)c1ccc(C(=O)N2CCC(c3ccnc4[nH]c(C5CCOCC5)nc34)CC2)c(N)c1 [Example 84, (2-amino-4-methylsulfonyl-phenyl)-[4-(2-tetrahydropyran-4-yl-3H-imidazo[4,5-b]pyridin-7-yl)-1-piperidyl]methanone]
> 10000 nM | 25700 nM | O=C1Nc2ccccc2OC1CC(=O)N1CCC(c2ccnc3[nH]c(C4CCOCC4)nc23)CC1 (stereo not drawn) [Example 106, 2-[2-oxo-2-[4-(2-tetrahydropyran-4-yl-3H-imidazo[4,5-b]pyridin-7-yl)-1-piperidyl]ethyl]-4H-1,4-benzoxazin-3-one]
 | 6460 nM | O=C(c1ccc(S(F)(F)(F)(F)F)cc1)N1CCC(c2c(F)cnc3[nH]c(C4CN(C(=O)O)C5COCC5O4)nc23)CC1 (racemic) [Example 455, (rac)-2-[6-fluoro-7-[1-[4-(pentafluoro-λ^6-sulfanyl)benzoyl]-4-piperidyl]-3H-imidazo[4,5-b]pyridin-2-yl]-2,3,4a,5,7,7a-hexahydrofuro[3,4-b][1,4]oxazine-4-carboxylic acid]
> 10000 nM | 262 nM | O=C(c1ccc(C(F)(F)F)c(=O)[nH]1)N1CCC(c2ccnc3[nH]c(C4CCOCC4)nc23)CC1 [Example 53, 6-[4-(2-Tetrahydropyran-4-yl-3H-imidazo[4,5-b]pyridin-7-yl)piperidine-1-carbonyl]-3-(trifluoromethyl)-1H-pyridin-2-one, hydrochloride]
98 nM | 102 nM | Nc1cc(OC(F)(F)F)ccc1C(=O)N1CCC(c2ccnc3[nH]c(C4COCCO4)nc23)CC1 (single isomer, unassigned) [Example 144, [2-amino-4-(trifluoromethoxy)phenyl]-[4-[2-[1,4-dioxan-2-yl]-3H-imidazo[4,5-b]pyridin-7-yl]-1-piperidyl]methanone]
> 10000 nM | 18000 nM | O=C(C1CCN(c2ccccc2Cl)C1)N1CCC(c2ccnc3[nH]c(C4CCOCC4)nc23)CC1 (stereo not drawn) [Example 118, [1-(2-chlorophenyl)pyrrolidin-3-yl]-[4-(2-tetrahydropyran-4-yl-3H-imidazo[4,5-b]pyridin-7-yl)-1-piperidyl]methanone]
 | 175 nM | O=C(c1ccc(S(F)(F)(F)(F)F)cc1)N1CCC(c2c(F)cnc3[nH]c([C@H]4C[C@H](O)C4)nc23)CC1 [Example 448, (trans)-[4-[6-fluoro-2-(3-hydroxycyclobutyl)-3H-imidazo[4,5-b]pyridin-7-yl]-1-piperidyl]-[4-(pentafluoro-λ^6-sulfanyl)phenyl]methanone]
203 nM | 207 nM | CC12CC(N)(C1)C(c1nc3c(C4CCN(C(=O)c5ccc(OC(F)(F)F)cc5N)CC4)ccnc3[nH]1)O2 (single isomer, unassigned) [Example 254, [4-[2-[4-amino-1-methyl-2-oxabicyclo[2.1.1]hexan-3-yl]-3H-imidazo[4,5-b]pyridin-7-yl]-1-piperidyl]-[2-amino-4-(trifluoromethoxy)phenyl]methanone]
104 to 165 nM | 684 nM | O=C(c1ccc(S(F)(F)(F)(F)F)cc1)N1CCC(c2c(F)cnc3[nH]c(C4CCOC4)nc23)CC1 (single isomer, unassigned) [Example 400, [4-[6-fluoro-2-[tetrahydrofuran-3-yl]-3H-imidazo[4,5-b]pyridin-7-yl]-1-piperidyl]-[4-(pentafluoro-λ^6-sulfanyl)phenyl]methanone]
 | 10500 nM | O=C(c1ccc(S(F)(F)(F)(F)F)cc1)N1CCC(c2c(F)cnc3[nH]c([C@H]4CC[C@@](O)(C(F)(F)F)CC4)nc23)CC1 [Example 450, (trans)-[4-[6-fluoro-2-[4-hydroxy-4-(trifluoromethyl)cyclohexyl]-3H-imidazo[4,5-b]pyridin-7-yl]-1-piperidyl]-[4-(pentafluoro-λ^6-sulfanyl)phenyl]methanone]
> 10000 nM | 16400 nM | Nc1nc2ccccc2nc1C(=O)N1CCC(c2ccnc3[nH]c(C4CCOCC4)nc23)CC1 [Example 116, (3-aminoquinoxalin-2-yl)-[4-(2-tetrahydropyran-4-yl-3H-imidazo[4,5-b]pyridin-7-yl)-1-piperidyl]methanone]
37 nM | 36 nM | Nc1c(C(=O)N2CCC(c3ccnc4[nH]c(C5CCOCC5)nc34)CC2)ccc(OC(F)(F)F)c1F [Example 189, [2-amino-3-fluoro-4-(trifluoromethoxy)phenyl]-[4-(2-tetrahydropyran-4-yl-3H-imidazo[4,5-b]pyridin-7-yl)-1-piperidyl]methanone]
87 nM | 83 nM | Nc1cc(OC(F)(F)F)ccc1C(=O)N1CCC(c2ccnc3[nH]c(C4CNCCO4)nc23)CC1 (single isomer, unassigned) [Example 96, [2-amino-4-(trifluoromethoxy)phenyl]-[4-[2-[morpholin-2-yl]-3H-imidazo[4,5-b]pyridin-7-yl]-1-piperidyl]methanone]
13 nM | 13 nM | COC12CC(c3nc4c(C5CCN(C(=O)c6ccc(OC(F)(F)F)cc6N)CC5)ccnc4[nH]3)(C1)C2 [Example 150, [2-amino-4-(trifluoromethoxy)phenyl]-[4-[2-(3-methoxy-1-bicyclo[1.1.1]pentanyl)-3H-imidazo[4,5-b]pyridin-7-yl]-1-piperidyl]methanone]
 | 280 nM | O=C(c1ccc(S(F)(F)(F)(F)F)cc1)N1CCC(c2c(F)cnc3[nH]c(N4CCOCC4)nc23)CC1 [Example 449]
 | 385 nM | Nc1cc(S(F)(F)(F)(F)F)ccc1C(=O)N1CCC(c2c(F)cnc3[nH]c(C4CCCO4)nc23)CC1 (racemic) [Example 383, (rac)-[2-amino-4-(pentafluoro-λ^6-sulfanyl)phenyl]-[4-(6-fluoro-2-tetrahydrofuran-2-yl-3H-imidazo[4,5-b]pyridin-7-yl)-1-piperidyl]methanone]
> 10000 nM | 25200 nM | O=C(C1CC1c1cccc(O)c1)N1CCC(c2ccnc3[nH]c(C4CCOCC4)nc23)CC1 (stereo not drawn) [Example 86, [2-(3-hydroxyphenyl)cyclopropyl]-[4-(2-tetrahydropyran-4-yl-3H-imidazo[4,5-b]pyridin-7-yl)-1-piperidyl]methanone]
 | 487 nM | O=C(c1ccc(S(F)(F)(F)(F)F)cc1)N1CCC(c2c(F)cnc3[nH]c([C@H]4C[C@@H](O)C4)nc23)CC1 [Example 446, (cis)-[4-[6-fluoro-2-(3-hydroxycyclobutyl)-3H-imidazo[4,5-b]pyridin-7-yl]-1-piperidyl]-[4-(pentafluoro-λ^6-sulfanyl)phenyl]methanone]
> 10000 nM | 98 nM | O=C(c1ccc(C(F)(F)F)[nH]c1=O)N1CCC(c2ccnc3[nH]c(C4CCOCC4)nc23)CC1 [Example 264, 3-[4-(2-tetrahydropyran-4-yl-3H-imidazo[4,5-b]pyridin-7-yl)piperidine-1-carbonyl]-6-(trifluoromethyl)-1H-pyridin-2-one]
97 nM | 95 nM | COC12CC(c3nc4c(C5CCN(C(=O)c6ccc(S(F)(F)(F)(F)F)cc6)CC5)ccnc4[nH]3)(C1)C2 [Example 302, [4-[2-(3-methoxy-1-bicyclo[1.1.1]pentanyl)-3H-imidazo[4,5-b]pyridin-7-yl]-1-piperidyl]-[4-(pentafluoro-λ^6-sulfanyl)phenyl]methanone]
 | 535 nM | O=C(c1ccc(S(F)(F)(F)(F)F)cc1)N1CCC(c2c(F)cnc3[nH]c(C4CCN(C5CC5)CC4)nc23)CC1 [Example 431, [4-[2-(1-cyclopropyl-4-piperidyl)-6-fluoro-3H-imidazo[4,5-b]pyridin-7-yl]-1-piperidyl]-[4-(pentafluoro-λ^6-sulfanyl)phenyl]methanone]
> 10000 nM | 6600 nM | O=C(c1cn(-c2ccc(F)cc2)cn1)N1CCC(c2ccnc3[nH]c(C4CCOCC4)nc23)CC1 [Example 120, [1-(4-fluorophenyl)imidazol-4-yl]-[4-(2-tetrahydropyran-4-yl-3H-imidazo[4,5-b]pyridin-7-yl)-1-piperidyl]methanone]
163 nM | 166 nM | O=C(c1ccc(S(F)(F)(F)(F)F)cc1)N1CCC(c2ccnc3[nH]c(C4CCCO4)nc23)CC1 (single isomer, unassigned) [Example 298, [4-(pentafluoro-λ^6-sulfanyl)phenyl]-[4-[2-[tetrahydrofuran-2-yl]-3H-imidazo[4,5-b]pyridin-7-yl]-1-piperidyl]methanone]
284 nM | 273 nM | O=C(c1ccc(S(F)(F)(F)(F)F)cc1)N1CCC(c2ccnc3[nH]c(C4CCOC4)nc23)CC1 (single isomer, unassigned) [Example 301, [4-(pentafluoro-λ^6-sulfanyl)phenyl]-[4-[2-[tetrahydrofuran-3-yl]-3H-imidazo[4,5-b]pyridin-7-yl]-1-piperidyl]methanone]
47 nM | 47 nM | Nc1cc(OC(F)(F)F)ccc1C(=O)N1CCC(c2ccnc3[nH]c(C4CCN(CC(F)F)CC4)nc23)CC1 [Example 37, [2-Amino-4-(trifluoromethoxy)phenyl]-[4-[2-[1-(2,2-difluoroethyl)-4-piperidyl]-3H-imidazo[4,5-b]pyridin-7-yl]-1-piperidyl]methanone]
